Where “and” joins values, the source holds several entries; their conditions need not be identical. Identical values can stand only once.
Columns and labels:
Type in all cases: in vivo
[1] = test system: Alopecurus myosuroides (black grass); test: Growth room pot test, post-emergence phytotoxicity on ALOMY
Description: (§1) A simple mathematical method to test the additivity of a pesticide combination is based on the equation: [formula]
(§2) in which X and Y represent the percentage-of-inhibition of growth by toxicant A and B, respectively. E is the expected percentage-of-inhibition of growth by the mixture A and B. In order to show synergism, the actual efficacy should be higher than E.
(§3) The compounds were tested alone and in admixture with a co-herbicide, which was also tested alone, against the following weeds:
(§4) In the test procedure three replicate pots per treatment were randomly arranged through a growth room. The plants were treated about three weeks after planting and then submitted to a photoperiod of 14 hours per day; the temperature was 15 degrees Centigrade during the day and 9 degrees at night. All applications of test formulations were performed using a MARDRIVE sprayer, simulating as far as possible field conditions. The pressure was controlled at 2 bar and the water volume was 300 l/ha. The weed plants were at a true leaf stage between 0 to 6 leaves.
(§5) The results in the tables and figures are presented as average values of three replicates.

[2] = test system: Avena fatua (wild oats); test: Growth room pot test, post-emergence phytotoxicity on AVEFA
Description: as §1, §2, §3, §4, §5

[3] = test system: Galium aparine (bedstraw cleavers); test: Growth room pot test, post-emergence phytotoxicity on GALAP
Description: as §1, §2
(§6) are formulated as suspension concentrates (SC) containing about 42% by weight of active ingredient.
as §3, §4
(§7) Assessment of phytotoxicity was made by comparison with untreated control pots on an arbitrary scale from 0 to 100%, where 0 represents no visible effect and 100 represents a kill of all plants. The results in the tables and figures are presented as average values of three replicates.

[4] = test system: Lamium purpureum (red dead nettle); test: Growth room pot test, post-emergence phytotoxicity on LAMPU
Description: as §1, §2, §6, §3, §4, §7

[5] = test system: Stellaria media (common chickweed); test: Growth room pot test, post-emergence phytotoxicity on STEME
Description: as §1, §2, §3, §4, §5

[6] = test system: Veronica persica (common field speedwell); test: Growth room pot test, post-emergence phytotoxicity on VERPE
Description: as §1, §2, §6, §3, §4, §7

[7] = test system: Matricaria chamomilla (mayweed); test: Growth room pot test, post-emergence phytotoxicity on MATCH
Description: as §1, §2, §3, §4, §5

[8] = test system: weeds; test: Growth room pot test, overall synergy on the weeds; conditions: mixtures of sulfonylurea A or B with co-herbicide
From the text: It is generally admitted that, in case of synergism, the effectiveness of the mixture cannot be computed from that of the individual ingredients. Synergism is generally defined as the simultaneous action of two or more compounds in which the total response of an organism to the pesticide combination is greater that the sum of the individual components.
as §1, §2, §3
In the test procedure three replicate pots per treatment were randomly arranged through a growth room. The plants were treated about three weeks after planting and then submitted to a photoperiod of 14 hours per day; the temperature was 15 degrees Centigrade during the day and 9 degrees at night. All applications of test formulations were performed using a MARDRIVE sprayer, simulating as far as possible field conditions. The pressure was controlled at 2 bar and the water volume was 300 l/ha. The weed plants were at a true leaf stage between 0 to 6 leaves. […]

## CC(C)c1ccc(NC(=O)N(C)C)cc1 [Isoproturon, isoproturon]
[1]; 1000 g/ha
  Phytotoxicity of herbicide alone: 0%
[2]; 1000 g/ha
  Phytotoxicity of herbicide alone: 0%
[3]; 500 g/ha
  Phytotoxicity of herbicide alone: 0%
[4]; 500 g/ha
  Phytotoxicity of herbicide alone: 25%
[5]; 500 g/ha
  Phytotoxicity of herbicide alone: 0%
[6]; 500 g/ha
  Phytotoxicity of herbicide alone: 0%

## Cn1c(-c2ccccc2)cc(-c2ccccc2)[n+]1C [Difenzoquat, difenzoquat]
[1]; 600 g/ha
  Phytotoxicity of herbicide alone: 5%
[2]; 600 g/ha
  Phytotoxicity of herbicide alone: 60%
[4]; 600 g/ha
  Phytotoxicity of herbicide alone: 5%
[5]; 400 g/ha
  Phytotoxicity of herbicide alone: 0%
[6]; 200 g/ha
  Phytotoxicity of herbicide alone: 0%

## CCS(=O)(=O)c1nc2sccn2c1S(=O)(=O)NC(=O)Nc1nc(OC)cc(OC)n1 [SU - B]
[1]; 20 g/ha
  Phytotoxicity of herbicide alone: 10%
[1]; 30 g/ha
  Phytotoxicity of herbicide alone: 20% and 40%
[2]; 20 g/ha
  Phytotoxicity of herbicide alone: 0% and 5%
[2]; 30 g/ha
  Phytotoxicity of herbicide alone: 0%
[3]; 20 g/ha
  Phytotoxicity of herbicide alone: 80%
[4]; 10 g/ha
  Phytotoxicity of herbicide alone: 0%
[7]; 20 g/ha
  Phytotoxicity of herbicide alone: 60%
[7]; 30 g/ha
  Phytotoxicity of herbicide alone: 90%
[5]; 20 g/ha
  Phytotoxicity of herbicide alone: 20%
[5]; 30 g/ha
  Phytotoxicity of herbicide alone: 30%
[6]; 20 g/ha
  Phytotoxicity of herbicide alone: 50%

## CCC(CC)Nc1c([N+](=O)[O-])cc(C)c(C)c1[N+](=O)[O-] [Pendimethalin, pendimethalin]
[1]; 800 g/ha
  Phytotoxicity of herbicide alone: 10%
[2]; 1200 g/ha
  Phytotoxicity of herbicide alone: 0%
[3]; 1200 g/ha
  Phytotoxicity of herbicide alone: 60%
[4]; 400 g/ha
  Phytotoxicity of herbicide alone: 70%
[7]; 800 g/ha
  Phytotoxicity of herbicide alone: 50%
[5]; 800 g/ha
  Phytotoxicity of herbicide alone: 0%
[6]; 1200 g/ha
  Phytotoxicity of herbicide alone: 90%

## imazamethabenz-methyl
[1]; 300 g/ha
  Phytotoxicity of herbicide alone: 15%
[2]; 100 g/ha
  Phytotoxicity of herbicide alone: 30%
[4]; 300 g/ha
  Phytotoxicity of herbicide alone: 60%
[7]; 300 g/ha
  Phytotoxicity of herbicide alone: 5%
[5]; 100 g/ha
  Phytotoxicity of herbicide alone: 10%
[6]; 200 g/ha
  Phytotoxicity of herbicide alone: 0%
[6]; 300 g/ha
  Phytotoxicity of herbicide alone: 10%

## CC(C)N(C(=O)SCC(Cl)=C(Cl)Cl)C(C)C [Triallate, triallate]
[1]; 1500 g/ha
  Phytotoxicity of herbicide alone: 50%
[2]; 1500 g/ha
  Phytotoxicity of herbicide alone: 65%
[4]; 1500 g/ha
  Phytotoxicity of herbicide alone: 50%
[7]; 1500 g/ha
  Phytotoxicity of herbicide alone: 10%
[5]; 1000 g/ha
  Phytotoxicity of herbicide alone: 10%
[6]; 500 g/ha
  Phytotoxicity of herbicide alone: 40%

## CCOC(=O)[C@@H](C)Oc1ccc(Oc2nc3ccc(Cl)cc3o2)cc1 [fenoxaprop-P-ethyl]
[8]
  Synergistic effect on the weeds (observed higher than expected): synergized

## Nc1c(Cl)c(F)nc(OCC(=O)O)c1Cl [Fluroxypyr, fluroxypyr]
[1]; 100 g/ha
  Phytotoxicity of herbicide alone: 0%
[2]; 100 g/ha
  Phytotoxicity of herbicide alone: 0%
[3]; 50 g/ha
  Phytotoxicity of herbicide alone: 70%
[4]; 1000 g/ha
  Phytotoxicity of herbicide alone: 50%
[7]; 100 g/ha
  Phytotoxicity of herbicide alone: 20%
[5]; 100 g/ha
  Phytotoxicity of herbicide alone: 60%
[6]; 100 g/ha
  Phytotoxicity of herbicide alone: 85%

## CCS(=O)(=O)c1nc2ccccn2c1S(=O)(=O)NC(=O)Nc1nc(OC)cc(OC)n1 [SU - A]
[1]; 10 g/ha
  Phytotoxicity of herbicide alone: 10% and 0%
[1]; 20 g/ha
  Phytotoxicity of herbicide alone: 0%
[2]; 10 g/ha
  Phytotoxicity of herbicide alone: 0%
[2]; 30 g/ha
  Phytotoxicity of herbicide alone: 0% and 10%
[3]; 20 g/ha
  Phytotoxicity of herbicide alone: 60%
[7]; 10 g/ha
  Phytotoxicity of herbicide alone: 70% and 40%
[7]; 20 g/ha
  Phytotoxicity of herbicide alone: 90% and 45%
[7]; 30 g/ha
  Phytotoxicity of herbicide alone: 70%
[5]; 10 g/ha
  Phytotoxicity of herbicide alone: 70% and 50%
[5]; 20 g/ha
  Phytotoxicity of herbicide alone: 60%
[5]; 30 g/ha
  Phytotoxicity of herbicide alone: 65% and 55%
[6]; 10 g/ha
  Phytotoxicity of herbicide alone: 30% and 20%
[6]; 20 g/ha
  Phytotoxicity of herbicide alone: 70% and 50%

Reference: patent US6455470B1, “Herbicidal compositions” (priority 1994, dated 2002)
